Measured values taken from the NIST ThermoML archive (doi:10.1021/je020110g).
Numbers after ± are expanded uncertainties.

How the values were obtained:
[1] = Liquid
[2] = excess molar enthalpy (molar enthalpy of mixing); xn = mol fraction of the nth substance listed; conditions: 298.15 K, 101.3 kPa, Liquid, Flow calorimetry

SMILES | vapor or sublimation pressure ([1]; 278.15 K) | vapor or sublimation pressure ([1]; 283.15 K) | vapor or sublimation pressure ([1]; 288.15 K) | vapor or sublimation pressure ([1]; 293.15 K) | vapor or sublimation pressure ([1]; 298.15 K) | vapor or sublimation pressure ([1]; 303.15 K) | vapor or sublimation pressure ([1]; 308.15 K) | vapor or sublimation pressure ([1]; 313.15 K) | vapor or sublimation pressure ([1]; 318.15 K) | vapor or sublimation pressure ([1]; 323.15 K) | also measured
CCCCBr [1-bromobutane] | 1.86 ± 0.014 kPa | 2.48 ± 0.015 kPa | 3.265 ± 0.016 kPa | 4.261 ± 0.017 kPa | 5.506 ± 0.018 kPa | 7.039 ± 0.02 kPa | 8.899 ± 0.023 kPa | 11.15 ± 0.026 kPa | 13.87 ± 0.03 kPa | 17.09 ± 0.035 kPa | 
CCCCBr [1-bromobutane] + CC(C)CO |  |  |  |  |  |  |  |  |  |  | excess molar enthalpy ([2]; x2 = 0.0421): 0.127 ± 0.00287 kcal/mol; excess molar enthalpy ([2]; x2 = 0.0942): 0.203 ± 0.0043 kcal/mol; excess molar enthalpy ([2]; x2 = 0.1932): 0.269 ± 0.00574 kcal/mol; excess molar enthalpy ([2]; x2 = 0.2938): 0.298 ± 0.00645 kcal/mol; excess molar enthalpy ([2]; x2 = 0.3468): 0.304 ± 0.00645 kcal/mol; excess molar enthalpy ([2]; x2 = 0.3957): 0.304 ± 0.00645 kcal/mol; excess molar enthalpy ([2]; x2 = 0.4476): 0.298 ± 0.00645 kcal/mol; excess molar enthalpy ([2]; x2 = 0.499): 0.288 ± 0.00621 kcal/mol; excess molar enthalpy ([2]; x2 = 0.6): 0.258 ± 0.0055 kcal/mol; excess molar enthalpy ([2]; x2 = 0.7021): 0.213 ± 0.00454 kcal/mol; excess molar enthalpy ([2]; x2 = 0.8052): 0.152 ± 0.00335 kcal/mol; excess molar enthalpy ([2]; x2 = 0.906): 0.0789 ± 0.00167 kcal/mol; excess molar enthalpy ([2]; x2 = 0.9587): 0.038 ± 0.000956 kcal/mol
CCCCBr [1-bromobutane] + CCC(C)O |  |  |  |  |  |  |  |  |  |  | excess molar enthalpy ([2]; x2 = 0.0424): 0.124 ± 0.00263 kcal/mol; excess molar enthalpy ([2]; x2 = 0.0948): 0.221 ± 0.00478 kcal/mol; excess molar enthalpy ([2]; x2 = 0.1942): 0.306 ± 0.00645 kcal/mol; excess molar enthalpy ([2]; x2 = 0.2951): 0.35 ± 0.00741 kcal/mol; excess molar enthalpy ([2]; x2 = 0.3482): 0.363 ± 0.00765 kcal/mol; excess molar enthalpy ([2]; x2 = 0.3973): 0.369 ± 0.00789 kcal/mol; excess molar enthalpy ([2]; x2 = 0.4492): 0.366 ± 0.00789 kcal/mol; excess molar enthalpy ([2]; x2 = 0.5006): 0.36 ± 0.00765 kcal/mol; excess molar enthalpy ([2]; x2 = 0.6015): 0.333 ± 0.00717 kcal/mol; excess molar enthalpy ([2]; x2 = 0.7035): 0.285 ± 0.00621 kcal/mol; excess molar enthalpy ([2]; x2 = 0.8062): 0.212 ± 0.00454 kcal/mol; excess molar enthalpy ([2]; x2 = 0.9066): 0.117 ± 0.00263 kcal/mol; excess molar enthalpy ([2]; x2 = 0.959): 0.0588 ± 0.00143 kcal/mol
CC(C)CO [2-methyl-1-propanol] | 0.335 ± 0.011 kPa | 0.505 ± 0.011 kPa | 0.739 ± 0.012 kPa | 1.057 ± 0.013 kPa | 1.501 ± 0.014 kPa | 2.133 ± 0.014 kPa | 2.956 ± 0.015 kPa | 4.026 ± 0.016 kPa | 5.444 ± 0.018 kPa | 7.237 ± 0.02 kPa | 
CCC(C)O (stereo unspecified) [butan-2-ol] | 0.519 ± 0.011 kPa | 0.78 ± 0.012 kPa | 1.137 ± 0.013 kPa | 1.648 ± 0.014 kPa | 2.324 ± 0.014 kPa | 3.256 ± 0.016 kPa | 4.462 ± 0.017 kPa | 6.048 ± 0.019 kPa | 8.105 ± 0.022 kPa | 10.71 ± 0.025 kPa | 
